Square brackets hold non-standard residues; d marks the D form. Peptide text beside a SMILES is read from it.
Legend:
[1] = system: CXCR4/CXCL12 induced p-MEK; experiment: CXCR4/CXCL12 induced p-MEK in Jurkat cells (ELISA); assay type: cell-based, human; details: 5 nM CXCL12, 5 min
In short: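 Jurkat cells in RPMI+GlutaMax containing 10% FBS and 1% penicillin/streptomycin, fresh or conditioned, were resuspended at 2×10^6 cells/ml and […] aliquots placed in tubes. After a 5 min stimulation they were pelleted, rinsed with HBSS and lysed with PMSF and protease/phosphatase inhibitors. Phospho-MEK1 (Ser217/221) was quantified by sandwich ELISA with absorbance read at 450 nm.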

3T3-L1 Mouse Adipocytes = experiment: Free fatty acid levels in cultured mouse adipocytes; assay type: cell-based; details: peptide 10 μM, 20-22 hours then 3 hours with 1 nM isoproterenol; relative to isoproterenol treated cells
Protocol: The effect of the peptides on fatty acid metabolism can be assessed using an assay of free fatty acid levels in cultured cells such as mouse adipocytes. Peptides were initially prepared as 10 mM stock in DMSO and used at a final concentration of 10 μM (0.1% DMSO). […] Mouse 3T3-L1 cells purchased from ZenBio were seeded at 3,000 cells per well in 96-well plates in Pre-adipocyte Medium (Zen-Bio) and grown to confluence at 37° C. in a humidified atmosphere of 5% CO2/95% air. Two days after confluence, cells were placed in Adipocyte Differentiation Medium (Zen-Bio) and cultured for three additional days at 37° C. in a humidified atmosphere of 5% CO2/95% air. The culture media was then replaced with Adipocyte Maintenance Medium (Zen-Bio) and the cells maintained for an additional 9-12 days at 37° C. in a humidified atmosphere of 5% CO2/95% air with partial medium replacement every other day. Following 12-15 days of differentiation, test peptides were added at a final concentration of 10 μM in 0.1% DMSO and incubated for 20-22 hours in Adipocyte Maintenance Medium at 37° C. in a humidified atmosphere of 5% CO2/95% air. After 20-22 hours, 1 nM isoproterenol was added to all wells except untreated controls and test peptides were replenished. Insulin at 100 nM was added to control wells. Cells were incubated for 3 hours in Assay Buffer (Zen-Bio) at 37° C. in a humidified atmosphere of 5% CO2/95% air. Free fatty acid concentrations in the media were determined using a Free Fatty Acid Assay kit (Zen-Bio) according to the manufacturer's instructions using a Cytation 3 plate reader at 540 nm (BioTek, Winooski, Vt.). Absorbance values were corrected for untreated background and expressed relative to isoproterenol treated cells. Treatment with isoproterenol (1 nM) alone was used as the free fatty acid level stimulatory control. The relative standard deviation of the isoproterenol control was <10%. […] Free fatty acid levels for insulin (100 nM) treatment were <5% of the isoproterenol control value.

human CXCR4 = human CXCR4 (Homo sapiens, UniProt P61073); experiment: IC50 for inhibition of CXCR4 activation, β-Arrestin recruitment (Example 22); assay type: cell-based; set-up: host or cells: C2C12 (mouse myoblast) CXCR4 β-Arrestin PathHunter cell line
Chain of human CXCR4 (P61073 whole entry, the tested form may be a part): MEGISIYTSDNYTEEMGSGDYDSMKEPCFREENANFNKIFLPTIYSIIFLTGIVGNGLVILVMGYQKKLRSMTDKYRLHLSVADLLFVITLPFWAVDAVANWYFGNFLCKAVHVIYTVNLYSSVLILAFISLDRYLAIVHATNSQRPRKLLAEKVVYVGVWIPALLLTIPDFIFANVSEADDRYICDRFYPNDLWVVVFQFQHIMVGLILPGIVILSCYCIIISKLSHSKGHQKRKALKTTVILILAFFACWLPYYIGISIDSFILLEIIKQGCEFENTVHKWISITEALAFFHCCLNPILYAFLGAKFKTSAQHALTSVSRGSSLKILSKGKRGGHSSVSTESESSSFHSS
In short: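 C2C12 cells co-expressing ProLink-tagged human CXCR4 and Enzyme Acceptor-tagged β-arrestin (PathHunter). Peptides tested in 10-point, 3-fold dilutions from 1 μM (1 μM–0.05 nM). Recruitment read by chemiluminescent enzyme-fragment complementation after 90 min incubation.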

[2] = system: A172 human brain glioblastoma cell line; experiment: Caspase 3/7 activity (Caspase-Glo 3/7) in cultured cells; assay type: cell-based; details: peptide 10 μM, 18-20 hours, relative to 0.1% DMSO control
Protocol: The effect of the peptides on cell death/survival can be assessed using a caspase-3/7 assay in cultured cells. Peptides were dissolved at 10 mM in DMSO as stock solutions for use at a final concentration of 10 μM. […] Caspase-Glo 3/7 Assay Reagent was purchased from Promega (Madison, Wis.). A172 human brain glioblastoma cell line was purchased from American Type Culture Collection (Manassas, Va.). A172 cells were grown in DMEM supplemented with 10% FBS with 100 IU/ml penicillin and 100 μg/ml streptomycin. Cultures were maintained at 37° C. in a humidified atmosphere of 5% CO2/95% air. A172 cells were seeded at 8,000 cells per well on 96-well plates. […] Caspase 3/7 activity was determined using a Caspase-Glo 3/7 Assay kit (Promega) according to the manufacturer's instructions. Luminescence for each sample well on the plate was measured using a Cytation 3 plate reader (BioTek, Winooski, Vt.). Activity was calculated relative to 0.1% DMSO control.

| IC50 (human CXCR4) | Structure (SMILES) | Percent Inhibition of CXCR4/CXCL12 Induced p-MEK (100 nM Test Article) [1] | Percent Inhibition of CXCR4/CXCL12 Induced p-MEK (1 μM Test Article) [1] | Free Fatty Acid Levels, MEAN % ISO (3T3-L1 Mouse Adipocytes) | Caspase 3/7 Activity, Percent of Control Activity [2] |
| --- | --- | --- | --- | --- | --- |
| 4 nM | CC(C)C[C@H](NC(=O)[C@H](CO)NC(=O)[C@H](CO)NC(=O)[C@H](CCCNC(=N)N)NC(=O)[C@@H](NC(=O)[C@H](CO)NC(=O)[C@H](Cc1c[nH]cn1)NC(=O)[C@H](Cc1c[nH]cn1)NC(=O)[C@H](Cc1ccc(O)cc1)NC(=O)[C@H](CCCNC(=N)N)NC(=O)[C@H](CCC(=O)O)NC(=O)[C@@H](N)CC(C)C)C(C)C)C(=O)N[C@@H](CCCNC(=N)N)C(=O)N1CCC[C@H]1C(=O)N[C@@H](Cc1ccc(O)cc1)C(=O)N[C@H](C(=O)N[C@@H](CCCCN)C(=O)O)[C@@H](C)O [compound 4] (H-LERYHHSVRSSLRPYTK-OH; N-terminus and C-terminus assumed) | 40% | 76% | 92.3% | 107.7% |
| 11 nM | CSCC[C@H](N)C(=O)N[C@@H](CC(C)C)C(=O)N[C@@H](CCCNC(=N)N)C(=O)N[C@@H](CCCNC(=N)N)C(=O)N[C@@H](Cc1ccc(O)cc1)C(=O)N[C@@H](Cc1c[nH]cn1)C(=O)N[C@@H](Cc1c[nH]cn1)C(=O)N[C@@H](CO)C(=O)N[C@H](C(=O)N[C@@H](CCCNC(=N)N)C(=O)N[C@@H](CO)C(=O)N[C@@H](CO)C(=O)N[C@@H](CC(C)C)C(=O)N[C@@H](CCCNC(=N)N)C(=O)N1CCC[C@H]1C(=O)N[C@@H](Cc1ccc(O)cc1)C(=O)N[C@H](C(=O)N[C@@H](CCCCN)C(=O)O)[C@@H](C)O)C(C)C [compound 2] (H-MLRRYHHSVRSSLRPYTK-OH; N-terminus and C-terminus assumed) | −1% | 28% | 83.2% | 96.7% |
| – | CC(C)C[C@H](NC(=O)[C@H](CO)NC(=O)[C@H](CO)NC(=O)[C@H](CCCNC(=N)N)NC(=O)[C@@H](C)NC(=O)[C@H](CO)NC(=O)[C@H](Cc1c[nH]cn1)NC(=O)[C@H](Cc1c[nH]cn1)NC(=O)[C@H](Cc1ccc(O)cc1)NC(=O)[C@H](CCCNC(=N)N)NC(=O)[C@H](CCC(=O)O)NC(=O)[C@@H](N)CC(C)C)C(=O)N[C@@H](CCCNC(=N)N)C(=O)N1CCC[C@H]1C(=O)N[C@@H](Cc1ccc(O)cc1)C(=O)N[C@H](C(=O)O)[C@@H](C)O [compound 5] (H-LERYHHS[dA]RSSLRPYT-OH; N-terminus and C-terminus assumed) | −20% | 24% | 86.9% | 104.7% |
| 5 nM | CC(C)C[C@H](NC(=O)[C@H](CO)NC(=O)[C@H](CO)NC(=O)[C@H](CCCNC(=N)N)NC(=O)[C@@H](NC(=O)[C@H](CO)NC(=O)[C@H](Cc1c[nH]cn1)NC(=O)[C@H](Cc1c[nH]cn1)NC(=O)[C@H](Cc1ccc(O)cc1)NC(=O)[C@H](CCCNC(=N)N)NC(=O)[C@H](CCCNC(=N)N)NC(=O)[C@@H](N)CC(C)C)C(C)C)C(=O)N[C@@H](CCCNC(=N)N)C(=O)N1CCC[C@H]1C(=O)N[C@@H](Cc1ccc(O)cc1)C(=O)N[C@H](C(=O)N[C@@H](CCCCN)C(=O)O)[C@@H](C)O [compound 3] (H-LRRYHHSVRSSLRPYTK-OH; N-terminus and C-terminus assumed) | 29% | 91% | 82.0% | 121.4% |
